Data on 17 compounds can be found in patent US8969405B2, “Anticancer compounds and methods of making and using same” (St. Jude Children's Research Hospital, priority 2008, dated 2015).

Where only a bound is given, the exact number is not on record here.

The test system of series [1] is PC-3 prostate cancer cell line. Put plainly: In vitro cytotoxicity analysis (XTT), 72-hour exposure. In kind it is cell-based. The note with it: Homo sapiens, PC3 cells. How it is done:
(§1) Briefly, cell lines were seeded at various cell densities depending on the cell type.
(§2) Tables 1-3 display cytotoxicity data for exemplary compounds following a 72-hour exposure.
On the technique in general: Tetrazolium dyes change colour on reduction, which living cells bring about.

For series [2], the system named is JeKo-1 mantle cell lymphoma cell line. Described as above. In kind it is cell-based. As to conditions: Homo sapiens, JEKo1 cells. How it is done:
as §1, §2

Series [3] can be described thus: Stability study in buffer solution by HPLC. Format: physicochemical. As to conditions: 100 μM in PBS, pH 7.4. How it is done: Stability studies were performed for exemplary compounds 48 and 15. A 100 μM solution of compound 48 was prepared in buffer (PBS, pH 7.4) and warfarin was used as an internal standard. A sample was injected into a HPLC periodically starting at day 0 and ending at about 6 weeks to find out the stability of compound 48 in PBS solution. […] After 6 weeks, 58% of compound 48 remained in the buffer solution.

The test system of series [4] is JVM-2 mantle cell lymphoma cell line. Put plainly: In vitro cytotoxicity analysis (XTT), 72-hour exposure. Format: cell-based. The note with it: Homo sapiens, JVM-2 cells. How it is done: as §1, §2
Series [5] has as its system WiDr colorectal cancer cell line. Described as above. Format: cell-based. The note with it: Homo sapiens, read-out: Cytotoxicity IC50. On the procedure: as §1

The term IC50 denotes the concentration that inhibits the measured activity by half. Regarding `CC(/C=C/[C@@H]1C[C@]2(CO2)CC(C)(C)O1)=C\C[C@H]1OC[C@@H](NC(=O)/C=C\[C@H](C)OC(=O)C(C)(C)C)CO1` [Compound 49, (S,Z)-5-((2R,5R)-2-((2E,4E)-5-((3R,5S)-7,7-dimethyl-1,6-dioxaspiro[2.5]octan-5-yl)-3-methylpenta-2,4-dienyl)-1,3-dioxan-5-ylamino)-5-oxopent-3-en-2-yl pivalate], the IC50 in series [1] turned out to be 1.18 µM; in series [2] it was 0.34 µM.

Consider `CC(/C=C/[C@@H]1C[C@]2(CO2)CC(C)(C)O1)=C\C[C@H]1CC[C@@H](NC(=O)/C=C\[C@H](C)OC(=O)c2cccnc2)CC1` [Compound 21, (S,Z)-5-((1R,4R)-4-((2E,4E)-5-((3R,5S)-7,7-dimethyl-1,6-dioxaspiro[2.5]octan-5-yl)-3-methylpenta-2,4-dienyl)cyclohexylamino)-5-oxopent-3-en-2-yl nicotinate], for which the results for the IC50 in series [1] and in series [2] were 8.1 µM and 0.16 µM, respectively.

Take `CC(/C=C/[C@@H]1C[C@]2(CO2)CC(C)(C)O1)=C\C[C@H]1CC[C@@H](NC(=O)/C=C\[C@H](C)OC(=O)c2ccccc2)CC1` [Compound 20, (S,Z)-5-((1R,4R)-4-((2E,4E)-5-((3R,5S)-7,7-dimethyl-1,6-dioxaspiro[2.5]octan-5-yl)-3-methylpenta-2,4-dienyl)cyclohexylamino)-5-oxopent-3-en-2-yl benzoate]: the results for the IC50 in series [1] and in series [2] were 4.9 µM and 0.41 µM, respectively.

In general, half-life refers to the time in which the quantity being followed falls by half. As for `CC(/C=C/[C@@H]1C[C@]2(CO2)CC(C)(C)O1)=C\C[C@H]1OC[C@@H](NC(=O)/C=C\[C@H](C)OC(=O)C(C)C)CO1` [Compound 48, (S,Z)-5-((2R,5R)-2-((2E,4E)-5-((3R,5S)-7,7-dimethyl-1,6-dioxaspiro[2.5]octan-5-yl)-3-methylpenta-2,4-dienyl)-1,3-dioxan-5-ylamino)-5-oxopent-3-en-2-yl isobutyrate], the results for the 50% inhibitory concentration (IC50) in series [1] and in series [2] were 5.2 µM and 0.17 µM, respectively. For the same compound, the “compound remaining in the buffer solution” value in series [3] (after 6 weeks) came to 58%. Further, in series [3] (after 1 day), the degradable products result is given as “No degradable products were found”. Further, the half-life at 100 μM in series [3] (PBS buffer, read-out: calculated half life (converted)) is 50.4 days.

With `CC(/C=C/[C@@H]1C[C@]2(CO2)CC(C)(C)O1)=C\C[C@H]1CC[C@@H](NC(=O)/C=C\[C@H](C)OC(=O)C2CCOCC2)CC1` [Compound 17, (S,Z)-5-((1R,4R)-4-((2E,4E)-5-((3R,5S)-7,7-dimethyl-1,6-dioxaspiro[2.5]octan-5-yl)-3-methylpenta-2,4-dienyl)cyclohexylamino)-5-oxopent-3-en-2-yl tetrahydro-2H-pyran-4-carboxylate], the concentration for half-maximal inhibition (IC50) in series [1] was determined as 1.97 µM; in series [2], 0.44 µM.

For `CC(/C=C/[C@H]1OCC[C@@]2(CO2)[C@@H]1O)=C\C[C@H]1CC[C@@H](NC(=O)/C=C\[C@H](C)OC(=O)C(C)C)CC1` [Compound 38, (S,Z)-5-((1S,4R)-4-((2E,4E)-5-((3R,4R,5R)-4-hydroxy-1,6-dioxaspiro[2.5]octan-5-yl)-3-methylpenta-2,4-dienyl)cyclohexylamino)-5-oxopent-3-en-2-yl isobutyrate], the concentration for half-maximal inhibition (IC50) in series [1] was greater than 10 µM; in series [2] it was greater than 1 µM.

For `CC(/C=C/[C@@H]1C[C@]2(CO2)CC(C)(C)O1)=C\C[C@H]1CC[C@@H](NC(=O)/C=C\[C@H](C)OC(=O)C2CCN(c3ccnc(C(F)(F)F)n3)CC2)CC1` [Compound 22, (S,Z)-5-((1R,4R)-4-((2E,4E)-5-((3R,5S)-7,7-dimethyl-1,6-dioxaspiro[2.5]octan-5-yl)-3-methylpenta-2,4-dienyl)cyclohexylamino)-5-oxopent-3-en-2-yl 1-(2-(trifluoromethyl)pyrimidin-4-yl)piperidine-4-carboxylate], the half-maximal inhibitory concentration (IC50) in series [1] was greater than 10 µM; in series [2], greater than 1 µM.

Take `CC(/C=C/[C@@H]1C[C@]2(CO2)CC(C)(C)O1)=C\C[C@H]1CC[C@@H](NC(=O)/C=C\[C@H](C)OC(=O)c2cccn2C)CC1` [Compound 19, (S,Z)-5-((1R,4R)-4-((2E,4E)-5-((3R,5S)-7,7-Dimethyl-1,6-dioxaspiro[2.5]octan-5-yl)-3-methylpenta-2,4-dienyl)cyclohexylamino)-5-oxopent-3-en-2-yl 1-methyl-1H-pyrrole-2-carboxylate]: the IC50 in series [1] was determined as 4.3 µM; in series [2], 0.39 µM.

Regarding `COc1cccc(N2CCN(C(=O)O[C@@H](C)/C=C\C(=O)N[C@H]3CC[C@@H](C/C=C(C)/C=C/[C@@H]4C[C@]5(CO5)CC(C)(C)O4)CC3)CC2)c1` [Compound 25, (S,Z)-5-((1R,4R)-4-((2E,4E)-5-((3R,5S)-7,7-dimethyl-1,6-dioxaspiro[2.5]octan-5-yl)-3-methylpenta-2,4-dienyl)cyclohexylamino)-5-oxopent-3-en-2-yl 4-(3-methoxyphenyl)piperazine-1-carboxylate], the IC50 is greater than 2.5 µM in series [1], greater than 0.5 µM in series [4], greater than 0.5 µM in series [2] and greater than 1.25 µM in series [5].

In the case of `CC(/C=C/[C@@H]1C[C@]2(CO2)CC(C)(C)O1)=C\C[C@H]1CC[C@@H](NC(=O)/C=C\[C@H](C)OC(=O)N2CCN(C3CCCCCC3)CC2)CC1` [Compound 24, (S,Z)-5-((1R,4R)-4-((2E,4E)-5-((3R,5S)-7,7-dimethyl-1,6-dioxaspiro[2.5]octan-5-yl)-3-methylpenta-2,4-dienyl)cyclohexylamino)-5-oxopent-3-en-2-yl 4-cycloheptylpiperazine-1-carboxylate], the results for the half-maximal inhibitory concentration (IC50) in series [1] and in series [4] were greater than 0.5 µM and greater than 1 µM, respectively.

As to `CC(/C=C/[C@@H]1C[C@]2(CO2)CC(C)(C)O1)=C\C[C@H]1CC[C@@H](NC(=O)/C=C\[C@H](C)OC(=O)N2CCN(CCO)CC2)CC1` [Compound 27, (S,Z)-5-((1R,4R)-4-((2E,4E)-5-((3R,5S)-7,7-dimethyl-1,6-dioxaspiro[2.5]octan-5-yl)-3-methylpenta-2,4-dienyl)cyclohexylamino)-5-oxopent-3-en-2-yl 4-(2-hydroxyethyl)piperazine-1-carboxylate], the half-maximal inhibitory concentration (IC50) in series [1] is greater than 2.5 µM; in series [4] it was greater than 0.5 µM; in series [2], greater than 0.5 µM; in series [5] it was greater than 1.25 µM.

`CC(/C=C/[C@@H]1C[C@]2(CO2)CC(C)(C)O1)=C\C[C@H]1CC[C@@H](NC(=O)/C=C\[C@H](C)OC(=O)C(C)(C)C)CC1` [Compound 23, (S,Z)-5-((1R,4R)-4-((2E,4E)-5-((3R,5S)-7,7-dimethyl-1,6-dioxaspiro[2.5]octan-5-yl)-3-methylpenta-2,4-dienyl)cyclohexylamino)-5-oxopent-3-en-2-yl pivalate]: the concentration for half-maximal inhibition (IC50) in series [1] was 0.76 µM; in series [2] it was 0.03 µM.

Consider `CC(/C=C/[C@@H]1C[C@]2(CO2)CC(C)(C)O1)=C\C[C@H]1CC[C@@H](NC(=O)/C=C\[C@H](C)OC(=O)C2CCN(C)CC2)CC1` [Compound 16, (S,Z)-5-((1R,4R)-4-((2E,4E)-5-((3R,5S)-7,7-dimethyl-1,6-dioxaspiro[2.5]octan-5-yl)-3-methylpenta-2,4-dienyl)cyclohexylamino)-5-oxopent-3-en-2-yl 1-methylpiperidine-4-carboxylate], for which the results for the half-maximal inhibitory concentration (IC50) in series [1] and in series [2] were 10 µM and greater than 1 µM, respectively.

On to `CC(/C=C/[C@@H]1C[C@](O)(CCl)CC(C)(C)O1)=C\C[C@H]1CC[C@@H](NC(=O)/C=C\[C@H](C)OC(=O)N2CCN(C3CCCCCC3)CC2)CC1` [Compound 28, (S,Z)-5-((1R,4R)-4-((2E,4E)-5-((2S,4R)-4-(chloromethyl)-4-hydroxy-6,6-dimethyltetrahydro-2H-pyran-2-yl)-3-methylpenta-2,4-dienyl)cyclohexylamino)-5-oxopent-3-en-2-yl 4-cycloheptylpiperazine-1-carboxylate], for which the concentration for half-maximal inhibition (IC50) is greater than 5 µM in series [1], greater than 10 µM in series [4] and greater than 1.25 µM in series [5].

For the compound `CC(/C=C/[C@@H]1C[C@]2(CO2)CC(C)(C)O1)=C\C[C@H]1CC[C@@H](NC(=O)/C=C\[C@H](C)OC(=O)c2ccco2)CC1` [Compound 18, (S,Z)-5-((1R,4R)-4-((2E,4E)-5-((3R,5S)-7,7-dimethyl-1,6-dioxaspiro[2.5]octan-5-yl)-3-methylpenta-2,4-dienyl)cyclohexylamino)-5-oxopent-3-en-2-yl furan-2-carboxylate], the half-maximal inhibitory concentration (IC50) in series [1] was 3.5 µM; in series [2], 0.14 µM.

Consider `CC(=O)O[C@@H](C)CCC(=O)N[C@H]1CO[C@@H](C/C=C(C)/C=C/[C@@H]2C[C@]3(CO3)CC(C)(C)O2)OC1` [Compound 53, (S)-5-((2R,5R)-2-((2E,4E)-5-((3R,5S)-7,7-dimethyl-1,6-dioxaspiro[2.5]octan-5-yl)-3-methylpenta-2,4-dienyl)-1,3-dioxan-5-ylamino)-5-oxopentan-2-yl acetate], for which the concentration for half-maximal inhibition (IC50) in series [1] was greater than 10 µM; in series [2] it was greater than 1 µM.

Take `CC(/C=C/[C@@H]1C[C@]2(CO2)CC(C)(C)O1)=C\C[C@H]1CC[C@@H](NC(=O)/C=C\[C@H](C)OC(=O)N2CCN(C)CC2)CC1` [Compound 26, (S,Z)-5-((1R,4R)-4-((2E,4E)-5-((3R,5S)-7,7-dimethyl-1,6-dioxaspiro[2.5]octan-5-yl)-3-methylpenta-2,4-dienyl)cyclohexylamino)-5-oxopent-3-en-2-yl 4-methylpiperazine-1-carboxylate]: the IC50 in series [1] is greater than 2.5 µM; in series [4], greater than 0.5 µM; in series [2], greater than 0.5 µM; in series [5], greater than 0.5 µM.
